This assay can be described thus: Inhibition of SDS-activated 20S proteasome activity in rabbit muscle. Format: tissue-based, Oryctolagus cuniculus, Muscle tissue.
As for `CC(=O)N[C@@H](Cc1cccnc1)C(=O)N[C@@H](CC(C)C)B(O)O`, the pKi – broadly, the Ki on a negative log10 scale, so that one unit is a factor of ten – turned out to be 8.27.
For the compound `CC(C)C[C@H](NC(=O)[C@H](Cc1cccnc1)NS(C)(=O)=O)B(O)O`, the negative logarithm of the Ki (pKi) came to 8.2.
As for `CC(C)C[C@H](NC(=O)[C@H](Cc1cccc2ccccc12)NS(C)(=O)=O)B1OCCNCCO1`, the figure is 9.55.
For the compound `CC(C)C[C@H](NC(=O)[C@H](Cc1ccccc1)NC(=O)N1CCOCC1)B(O)O`, the negative-log Ki (pKi) stood at 9.09.
The figure for `CC(C)C[C@H](NC(=O)[C@H](CC(C)C)NC(=O)OCc1ccccc1)B(O)O` is 8.52; for `Cc1ccc(S(=O)(=O)N[C@@H](Cc2cccc3ccccc23)C(=O)N[C@@H](CC(C)C)B(O)O)cc1` it is 9.77; for `CC(C)C[C@H](NC(=O)[C@H](Cc1ccc(OCc2ccccn2)cc1)NC(=O)N1CCOCC1)B(O)O` it is 9.7.
In turn, `CC(C)C[C@H](NC(=O)[C@H](Cc1ccccc1)NC(=O)c1cccnc1)B(O)O` had a negative-log Ki (pKi) of 9.6.
The figure for `CC(C)C[C@H](NC(=O)[C@H](Cc1ccccn1)NC(=O)c1ccc2ccccc2n1)B(O)O` is 8.85.
Consider `CC(C)C[C@H](NC(=O)[C@H](Cc1ccccc1)NC(=O)c1ccccc1)B(O)O`, for which the pKi stood at 9.82.
`CC(C)C[C@H](NC(=O)[C@H](Cc1ccccc1)NC(=O)c1cc[nH]c1)B(O)O` returned a negative-log Ki (pKi) of 9.85.
The figure for `CC(C)C[C@H](NC(=O)[C@H](CC(C)C)N(C)C(=O)OCc1ccccc1)B(O)O` is 6.
Regarding `CC(C)C[C@H](NC(=O)[C@H](Cc1ccccc1)NC(=O)c1ccccn1)B(O)O`, the pKi came out at 9.38.
As for `CC(C)C[C@H](NC(=O)[C@H](Cc1ccccn1)NC(=O)c1cnccn1)B(O)O`, the figure is 8.15; as for `CC(C)C[C@H](NC(=O)[C@H](Cc1ccc(F)cc1)NC(=O)c1cnccn1)B(O)O`, 9.02; as for `CC(C)C[C@H](NC(=O)[C@H](Cc1c[nH]cn1)NC(=O)OCc1ccccc1)B(O)O`, 7.6.
As for `CC(C)C[C@H](NC(=O)[C@@H](N)Cc1cccnc1)B(O)O`, the figure is 6.82; as for `CC(C)C[C@H](NC(=O)[C@H](Cc1c[nH]c2ccccc12)NS(C)(=O)=O)B(O)O`, 8.24.
The figure for `CC(C)C[C@H](NC(=O)[C@H](Cc1cccc2ccccc12)NC(=O)c1cnc2ccccc2n1)B(O)O` is 9.85.
`CB(C)[C@H](CC(C)C)NC(=O)[C@H](CCc1ccccc1)NC(=O)N1CCOCC1`: the negative logarithm of the Ki (pKi) is given as 8.66.
`B[C@H](CC(C)C)NC(=O)[C@H](Cc1cccc2ccccc12)NC(=O)N1CCOCC1` came in with a negative-log Ki (pKi) of 8.7.
The figure for `CC(C)C[C@H](NC(=O)[C@H](Cc1cccc2ccccc12)NC(=O)c1ccccc1)B(O)O` is 10.06; for `CC(C)C[C@H](NC(=O)[C@H](Cc1c[nH]c2ccccc12)NC(=O)N1CCOCC1)B(O)O` it is 8.52.
The figure for `CC(C)C[C@H](NC(=O)[C@H](Cc1cccc2ccccc12)NC(=O)N1CCOCC1)B1OCCNCCO1` is 9.82.
Turning to `CC(C)C[C@H](NC(=O)[C@H](Cc1ccccc1)NC(=O)c1ccc2ccccc2n1)B(O)O`, the negative-log Ki (pKi) is 9.72. The pKi values of the last two compounds are within 0.2 log units of each other.
Compound `CC(C)C[C@H](NC(=O)[C@H](Cc1ccc2ccccc2n1)NC(=O)N1CCOCC1)B(O)O` showed a negative logarithm of the Ki (pKi) of 8.66.
As for `CC(C)C[C@H](NC(=O)[C@H](Cc1ccccc1)NC(=O)NCc1ccccc1)B(O)O`, the figure is 9.85.
With `CC(C)C[C@H](NC(=O)[C@@H](N)Cc1ccccn1)B(O)O`, the pKi came out at 7.5.
As for `CC(C)C[C@H](NC(=O)[C@H](Cc1ccccn1)NC(=O)C1CCCCC1)B(O)O`, the figure is 8.96.
The figure for `CC(=O)N[C@@H](Cc1cccc2ccccc12)C(=O)N[C@@H](CC(C)C)B(O)O` is 9.77.
In the case of `CC(C)C[C@H](NC(=O)[C@H](Cc1cccc2ccccc12)NC(=O)C1CCCCC1)B(O)O`, the pKi came out at 10.52.
Turning to `CN[C@@H](Cc1cccc2ccccc12)C(=O)N[C@@H](CC(C)C)B(O)O`, the negative-log Ki (pKi) worked out at 8.96.
The figure for `CC(C)C[C@H](NC(=O)[C@H](Cc1ccccn1)NS(=O)(=O)c1cccc2cccnc12)B(O)O` is 7.54; for `CC(C)C[C@H](NC(=O)[C@H](Cc1ccccc1)NC(=O)c1ccoc1)B(O)O` it is 9.77.
The figure for `CB(O)[C@H](CC(C)C)NC(=O)[C@H](Cc1cccc2ccccc12)NC(=O)N1CCOCC1` is 7; for `CB(C)[C@H](CC(C)C)NC(=O)[C@H](CCc1ccccc1)NC(=O)c1ccc2ccccc2n1` it is 8.55; for `CC(C)C[C@H](NC(=O)[C@@H](N)Cc1cccc2ccccc12)B(O)O` it is 8.12.
As for `CC(C)C[C@H](NC(=O)[C@H](Cc1ccc(O)cc1)NC(=O)N1CCOCC1)B(O)O`, the figure is 9.29.
The compound `CC(C)C[C@H](NC(=O)[C@H](Cc1cccnc1)NC(=O)N1CCOCC1)B(O)O` displayed a pKi of 8.89.
The figure for `CC(C)C[C@H](NC(=O)[C@H](Cc1cccc2ccccc12)NC(=O)c1ccc2ccccc2n1)B(O)O` is 10.12; for `CC(C)C[C@H](NC(=O)[C@H](Cc1ccccn1)NC(=O)c1ccccc1)B(O)O` it is 9.12.
The figure for `CC(C)C[C@H](NC(=O)[C@H](Cc1ccccc1)NS(=O)(=O)c1cccc2cccnc12)B(O)O` is 8.36; for `CC(C)C[C@H](NC(=O)[C@H](Cc1ccccn1)NC(=O)N1CCOCC1)B(O)O` it is 8.2; for `CC(=O)N[C@@H](Cc1c[nH]c2ccccc12)C(=O)N[C@@H](CC(C)C)B(O)O` it is 8.89.
The figure for `CC(C)C[C@H](NC(=O)[C@H](Cc1cccc2ccccc12)NC(=O)OCc1ccccc1)B(O)O` is 10.08; for `CC(C)C[C@H](NC(=O)[C@H](Cc1ccc2ncccc2c1)NC(=O)N1CCOCC1)B(O)O` it is 8.22; for `CC(C)C[C@H](NC(=O)[C@H](Cc1cccc2ccccc12)N(C)C(=O)OCc1ccccc1)B(O)O` it is 9.02.
The compound `CC(C)C[C@H](NC(=O)[C@H](Cc1ccccc1)NC(=O)OCc1ccccc1)B(O)O` showed a pKi of 9.89.
In turn, `CB(C)[C@H](CC(C)C)NC(=O)[C@H](Cc1cccc2ccccc12)NC(=O)N1CCOCC1` registered a pKi of 6.19.
As for `CC(C)C[C@H](NC(=O)[C@H](Cc1ccc(OCc2ccccc2)cc1)NC(=O)N1CCOCC1)B(O)O`, the figure is 9.64; as for `CC(C)C[C@@H](NC(=O)[C@H](N)Cc1cccc2ccccc12)B(O)O.Cl` (single isomer, unassigned), 8.41.
As for `CC(C)CC(NC(=O)[C@H](Cc1cccc2ccccc12)NC(=O)N1CCOCC1)B(O)O` (single isomer, unassigned), the figure is 9.14; as for `CC(C)CC(NC(=O)[C@H](Cc1ccccc1)NC(=O)CCc1ccccc1)B(O)O` (single isomer, unassigned), 9.82; as for `CC(C)CC(NC(=O)[C@H](Cc1ccc(F)cc1)NC(=O)c1ccccn1)B(O)O` (single isomer, unassigned), 9.08.
The figure for `CC(C)CC(NC(=O)[C@H](Cc1cccc2ccccc12)NS(=O)(=O)c1cccc2cccnc12)B(O)O` (single isomer, unassigned) is 8.77.
On to `CC(C)CC(NC(=O)[C@H](Cc1cccc2ccccc12)NC(=O)OCc1ccccc1)B1O[C@@H]2[C@H]3C[C@@H](C[C@]2(C)O1)C3(C)C` (single isomer, unassigned), for which the pKi came out at 10.
The figure for `CC(C)CC(NC(=O)C(CC(C)C)NC(=O)OCc1ccccc1)B1O[C@@H]2[C@H]3C[C@@H](C[C@]2(C)O1)C3(C)C` (single isomer, unassigned) is 6.92; for `CC(C)C[C@H](NC(=O)[C@H](Cc1ccccc1)NC(=O)c1cnccn1)B(O)O` [BORTEZOMIB] it is 9.22.

Values taken from ChEMBL document CHEMBL1137708, “3D-QSAR studies of boron-containing dipeptides as proteasome inhibitors with CoMFA and CoMSIA methods” (Eur J Med Chem, 2009).
